Test results from paper PMC7503370, “Cellular Signaling and Anti-Apoptotic Effects of Prolactin-Releasing Peptide and Its Analog on SH-SY5Y Cells” (International Journal of Molecular Sciences, 2020).

Tested on: SH-SY5Y cells
Assay: Pretreatment with peptides before MG stress, MTT cell viability
Type: cell-based, human
Details: 4 h pretreatment 1 × 10^−7 M, then 1.2 mM MG 16 h, n = 3, octuplicates
Description: Figure 5 PrRP31 and its analog increased cell viability during the MG-induced stress. Pre-treatment for 4 h with PrRP31 and palm^11-PrRP31 at a concentration of: (a) 1 × 10^−5 M; or (b) 1 × 10^−7 M, followed by exposure to 1.2 mM MG for 16 h in SH-SY5Y cells. Pre-treatment for 4 h with PrRP31 and palm^11-PrRP31 at a concentration of: (c) 1 × 10^−5 M; (d) 1 × 10^−7 M in SH-SY5Y cells; or (e) 1 × 10^−5 M in rat primary neuronal culture, followed by exposure to 0.6 mM MG for 16 h in SH-SY5Y cells. MG toxicity was measured with MTT assay. Data are presented as the means ± SEM as a percentage of control cells treated with vehicle analyzed by a Student’s t-test vs. 0.6 mM MG # p < 0.5, ## p < 0.01, ### p < 0.001, #### p < 0.0001 (n = 3, each sample in octuplicates). Control vs. 0.6 mM MG analyzed by a Student´s t-test, * p < 0.5, ** p < 0.01.
The MTT test was used to measure cell viability. The MTT reagent was dissolved in RPMI-1640 without phenol red. Cells were incubated for 2 h with a 10% solution of MTT at 37 °C. Living cells converted soluble MTT to insoluble formazan, which was subsequently dissolved in DMSO. The absorbance was measured at a wavelength of 560 nm.
For this assay, cells were cultured in 96-well plates at a density of 40,000 cells per well. The growth medium was exchanged for serum-free DMEM 16 h before the experiment. […]

## CC[C@H](C)[C@H](NC(=O)CNC(=O)[C@H](CCCNC(=N)N)NC(=O)[C@H](CO)NC(=O)[C@H](C)NC(=O)[C@H](Cc1ccc(O)cc1)NC(=O)[C@H](Cc1c[nH]c2ccccc12)NC(=O)[C@H](C)NC(=O)[C@@H]1CCCN1C(=O)[C@H](CC(N)=O)NC(=O)[C@@H](NC(=O)[C@H](CC(=O)O)NC(=O)[C@@H]1CCCN1C(=O)[C@@H](NC(=O)[C@H](CCCNC(=N)N)NC(=O)[C@@H](NC(=O)[C@H](CCC(=O)O)NC(=O)[C@H](CCSC)NC(=O)[C@H](CO)NC(=O)[C@H](Cc1c[nH]cn1)NC(=O)[C@H](CCCNC(=N)N)NC(=O)[C@H](Cc1c[nH]cn1)NC(=O)[C@@H](NC(=O)[C@H](CCCNC(=N)N)NC(=O)[C@@H](N)CO)[C@@H](C)O)[C@@H](C)CC)[C@@H](C)O)[C@@H](C)CC)C(=O)N[C@@H](CCCNC(=N)N)C(=O)N1CCC[C@H]1C(=O)N[C@H](C(=O)NCC(=O)N[C@@H](CCCNC(=N)N)C(=O)N[C@@H](Cc1ccccc1)C(N)=O)C(C)C [PrRP31]
  cell viability (% of control cells): not
